Test results reported in patent publication US11178868B2, “Alkynyl-substituted 3-phenylpyrrolidine-2,4-diones and use thereof as herbicides” (Bayer CropScience Aktiengesellschaft, priority 2015, dated 2021).

Assays:
Assay type in all cases: in vivo
Alopecurus myosuroides [1] = assay: Pre-emergence herbicidal effect; conditions: scored visually after 3 weeks
Text: (§1) Seeds of monocotyledonous and dicotyledonous weed plants and crop plants are laid out in wood-fibre pots in sandy loam and covered with soil. The compounds according to the invention formulated in the form of wettable powders (WP) or as emulsion concentrates (EC) are then applied as aqueous suspension or emulsion at a water application rate of 600 to 800 I/ha (converted) with the addition of 0.2% wetting agent to the surface of the covering soil. After the treatment, the pots are placed in a greenhouse and kept under good growth conditions for the trial plants. The damage to the test plants is scored visually after a test period of 3 weeks by comparison with untreated controls (herbicidal activity in percent (%): 100% activity=the plants have died, 0% activity=like control plants).

Echinochloa crus-galli [2] = assay: Pre-emergence herbicidal effect; conditions: scored visually after 3 weeks
Text: as §1

Avena fatua [3] = assay: Pre-emergence herbicidal effect; conditions: scored visually after 3 weeks
Text: as §1

Lolium multiflorum [4] = assay: Pre-emergence herbicidal effect; conditions: scored visually after 3 weeks
Text: as §1

Setaria viridis [5] = assay: Pre-emergence herbicidal effect; conditions: scored visually after 3 weeks
Text: as §1

Alopecurus myosuroides [6] = assay: Post-emergence herbicidal effect; conditions: assessed visually after about 3 weeks
Experimental: (§2) Seeds of monocotyledonous and dicotyledonous weed and crop plants are laid out in sandy loam in wood-fibre pots, covered with soil and cultivated in a greenhouse under good growth conditions. 2 to 3 weeks after sowing, the test plants are treated at the one-leaf stage. The compounds according to the invention, formulated in the form of wettable powders (WP) or as emulsion concentrates (EC), are then sprayed as aqueous suspension or emulsion at a water application rate of 600 to 800 I/ha (converted) with the addition of 0.2% of wetting agent onto the green parts of the plants. After the test plants have been left to stand in the greenhouse under optimal growth conditions for about 3 weeks, the action of the preparations is assessed visually in comparison to untreated controls (herbicidal action in percent (%): 100% activity=the plants have died, 0% activity=like control plants).

Echinochloa crus-galli [7] = assay: Post-emergence herbicidal effect; conditions: assessed visually after about 3 weeks
Experimental: as §2

Amaranthus retroflexus = assay: Post-emergence herbicidal effect; conditions: assessed visually after about 3 weeks
Experimental: as §2

Avena fatua [8] = assay: Post-emergence herbicidal effect; conditions: assessed visually after about 3 weeks
Experimental: as §2

Lolium multiflorum [9] = assay: Post-emergence herbicidal effect; conditions: assessed visually after about 3 weeks
Experimental: as §2

Setaria viridis [10] = assay: Post-emergence herbicidal effect; conditions: assessed visually after about 3 weeks
Experimental: as §2

Cyperus esculentus = assay: Pre-emergence herbicidal effect; conditions: scored visually after 3 weeks
Text: as §1

SMILES | Herbicidal effect against [%] ALOMY (Alopecurus myosuroides [1]; 80 g a.i./ha) [%] | Herbicidal effect against [%] ALOMY (Alopecurus myosuroides [1]; 320 g a.i./ha) [%] | Herbicidal effect against [%] ECHCG (Echinochloa crus-galli [2]; 80 g a.i./ha) [%] | Herbicidal effect against [%] ECHCG (Echinochloa crus-galli [2]; 320 g a.i./ha) [%] | Herbicidal effect against [%] AVEFA (Avena fatua [3]; 80 g a.i./ha) [%] | Herbicidal effect against [%] AVEFA (Avena fatua [3]; 320 g a.i./ha) [%] | Herbicidal effect against [%] LOLMU (Lolium multiflorum [4]; 80 g a.i./ha) [%] | Herbicidal effect against [%] LOLMU (Lolium multiflorum [4]; 320 g a.i./ha) [%] | Herbicidal effect against [%] SETVI (Setaria viridis [5]; 80 g a.i./ha) [%] | Herbicidal effect against [%] SETVI (Setaria viridis [5]; 320 g a.i./ha) [%] | Herbicidal effect against [%] ALOMY (Alopecurus myosuroides [6]; 80 g a.i./ha) [%] | Herbicidal effect against [%] ECHCG (Echinochloa crus-galli [7]; 20 g a.i./ha) [%] | Herbicidal effect against [%] ECHCG (Echinochloa crus-galli [7]; 80 g a.i./ha) [%] | Herbicidal effect against [%] AVEFA (Avena fatua [8]; 80 g a.i./ha) [%] | Herbicidal effect against [%] LOLMU (Lolium multiflorum [9]; 20 g a.i./ha) [%] | Herbicidal effect against [%] LOLMU (Lolium multiflorum [9]; 80 g a.i./ha) [%] | Herbicidal effect against [%] SETVI (Setaria viridis [10]; 20 g a.i./ha) [%] | Herbicidal effect against [%] SETVI (Setaria viridis [10]; 80 g a.i./ha) [%] | Herbicidal effect against [%] ALOMY (Alopecurus myosuroides [6]; 20 g a.i./ha) [%] | Herbicidal effect against [%] AVEFA (Avena fatua [8]; 20 g a.i./ha) [%] | also measured
CC#Cc1cc(CC)c(C2=C(OC(=O)OCC)C3(CCCC(OCC)C3)NC2=O)c(CC)c1 (single isomer, unassigned) [Example P4] | 100 | 100 | 100 | 100 | 100 | 100 | 100 | 100 | 100 | 100 | 100 | 100 | 100 | 100 | 100 | 100 | 100 | 100 |  |  | Herbicidal effect against [%] AMARE (Amaranthus retroflexus; 80 g a.i./ha): 80%
CC#Cc1cc(C)c(C2=C(O)C3(CCCC(OCCC)C3)NC2=O)c(C)c1 (stereo not drawn) [Example D3, 3-[2,6-Dimethyl-4-(prop-1-yn-1-yl)phenyl]-4-hydroxy-7-propoxy-1-azaspiro[4.5]dec-3-en-2-one] | 100 | 100 | 100 | 100 | 80 | 100 | 100 | 100 | 100 | 100 |  | 100 | 100 | 90 | 80 | 100 | 80 | 100 |  |  | Herbicidal effect against [%] AMARE (Amaranthus retroflexus; 80 g a.i./ha): 90%
C#Cc1cc(C)c(C2=C(O)C3(CCCC(OCCCC)C3)NC2=O)c(C)c1 (stereo not drawn) [Example D4] |  |  |  | 100 |  |  |  | 80 |  | 80 |  |  |  |  |  |  |  |  |  |  | Herbicidal effect against [%] CYPES (Cyperus esculentus; 320 g a.i./ha): 100%
CC#Cc1cc(CC)c(C2=C(O)C3(CCCC(OCCOC)C3)NC2=O)c(CC)c1 (stereo not drawn) [Example D5] | 100 | 100 | 100 | 100 | 100 | 100 | 100 | 100 | 100 | 100 | 100 | 100 | 100 | 100 | 100 | 100 | 100 | 100 | 100 | 100 | 
CC#Cc1ccc(C2=C(O)C3(CCCC(OCCOC)C3)NC2=O)c(CC)c1 (stereo not drawn) [Example D7] | 100 | 100 | 100 | 100 |  | 100 | 100 | 100 | 100 | 100 | 100 | 100 | 100 | 100 | 100 | 100 | 100 | 100 | 100 | 100 | 
CC#Cc1cc(C)c(C2=C(OC(=O)OCC)C3(CCCC(OCC)C3)NC2=O)c(CC)c1 (stereo not drawn) [Example P1] | 100 | 100 | 100 | 100 | 80 | 100 | 100 | 100 | 100 | 100 |  |  |  |  |  |  |  | 100 |  |  | Herbicidal effect against [%] CYPES (Cyperus esculentus; 80 g a.i./ha): 100%; Herbicidal effect against [%] CYPES (Cyperus esculentus; 320 g a.i./ha): 100%
CC#Cc1cc(CC)c(C2=C(OC(=O)C(C)C)C3(CCCC(OCCOC)C3)NC2=O)c(CC)c1 (stereo not drawn) [Example P12] | 100 | 100 | 100 | 100 | 100 | 100 | 100 | 100 | 100 | 100 | 100 | 100 | 100 | 100 | 100 | 100 | 100 | 100 | 100 | 100 | 
CC#Cc1cc(C)c(C2=C(OC(=O)OC(C)C)C3(CCCC(OCCOC)C3)NC2=O)c(C)c1 (stereo not drawn) [Example P14] | 100 | 100 | 100 | 100 | 100 | 100 | 100 | 100 | 100 | 100 | 100 | 100 | 100 | 90 | 100 | 100 | 90 | 100 | 100 | 90 | 
CC#Cc1cc(C)c(C2=C(OC(=O)OC)C3(CCCC(OCCOC)C3)NC2=O)c(C)c1 (stereo not drawn) [Example P16] | 100 | 100 | 100 | 100 | 100 | 100 | 100 | 100 |  |  | 100 | 100 | 100 | 100 | 100 | 100 | 100 | 100 | 100 | 100 | Herbicidal effect against [%] AMARE (Amaranthus retroflexus; 20 g a.i./ha): 80%; Herbicidal effect against [%] AMARE (Amaranthus retroflexus; 80 g a.i./ha): 80%
